# Laboratory results from article PMC12652113, “Fluorescent Albumin-Binding N-Propylbenzene Indolenine-Based Squaraines as Potential Candidates for Prostate Cancer Photodynamic Therapy Photosensitizers” (International Journal of Molecular Sciences, 2025).
# Experiments:
# [1] = Singlet oxygen generation, 1,3-diphenylisobenzofuran (DPBF) assay; format: physicochemical; settings: DMSO; LED irradiation; relative to benzoselenazole squaraine reference
# Protocol: The ability of the squaraine dyes to generate singlet oxygen was assessed using the 1,3-diphenylisobenzofuran (DPBF) assay. In this method, squaraine solutions were incubated with DPBF and irradiated for different time intervals, followed by the monitoring of absorbance at 410 nm. A progressive decrease in DPBF absorbance was observed upon irradiation for all synthesized compounds, confirming their ability to produce this reactive oxygen species. However, it should be emphasized that the reference squaraine dye induced a sharp reduction in DPBF absorbance within a short irradiation period, with the decay being limited only by its intrinsic photoinstability.
# Singlet oxygen production was assessed by monitoring the bleaching of 1,3-diphenylisobenzofuran (DPBF) at 410 nm. Fresh solutions of squaraine dyes (20 µM) and DPBF (0.1 mM) were introduced into 96-well plates, and decreases in absorbance were recorded before and after irradiation at defined time intervals. Quantum yields of singlet oxygen generation (ΦΔ) were determined by comparing the slopes of DPBF degradation for the squaraine dyes [S(dye)] with those of a benzoselenazole squaraine reference dye [S(ref), ΦΔ = 0.10], according to established linear regression procedures (Equation (1)). In parallel, photodegradation of the squaraines was monitored by following changes in their absorbance over time, with normalization applied to enable direct comparison across samples.(1) ΦΔdye=ΦΔref × Sdye/Sref
# [2] = system: normal human dermal fibroblasts (NHDF); experiment: MTT dark and light-induced cytotoxicity in NHDF; format: cell-based; settings: for IC50: Homo sapiens, 24 h incubation; for IC50 / Photodynamic ratio (PTR): NHDF; for Photodynamic ratio (PTR): IC50 dark/IC50 irradiated
# Protocol: For potential applicability as photosensitizers in PDT, these candidates are expected to display cytotoxic effects only after photoactivation, namely, and preferably restricted to target tissue cells, without inducing damage to healthy counterparts. To evaluate this, prostate adenocarcinoma PC-3 cells and non-tumoral NHDF fibroblasts were incubated with increasing concentrations of the squaraine dyes for 24 h. Subsequently, the cells were irradiated using an LED system centered at 663 nm, a wavelength close to the absorption maximum of the monomeric dye forms. Twenty-four hours post-irradiation, cellular metabolic activity was assessed by the MTT assay.
# The in cell photocytotoxicity of the squaraine dyes was assessed using the MTT assay. When cells reached 90–95% confluence, they were trypsinized using a trypsin-EDTA solution (0.125 g/L trypsin, 0.02 g/L EDTA), counted via trypan-blue exclusion in a Neubauer chamber, and diluted to 2 × 10^4 cells/mL. A 100 µL aliquot of this suspension was seeded into each well of 96-well plates and incubated for 48 h to allow for cell attachment and resumption of proliferation.
# After this period, the medium was removed, and cells were treated with various concentrations of the squaraine dyes (0.01, 0.1, 1, 2.5, 5, and 10 µM) in the appropriate culture medium. […] Negative controls consisted of cells exposed only to culture medium. All experiments were performed in quadruplicate and independently repeated.
# After 24 h of exposure to the dyes, the cells were subjected to two different irradiation conditions: the first group was not irradiated and was protected from ambient light for 21 min, and the second group was irradiated for 7 min.
# Twenty-four hours post-irradiation, the culture medium was removed, cells were washed with 100 µL PBS, and 100 µL of MTT solution (5 mg/mL in serum- and antibiotic-free medium) was added per well. Cells were incubated for 4 h at 37 °C, after which the supernatant was discarded, and the formazan crystals were solubilized in dimethyl sulfoxide. Absorbance was measured at 570 nm using a Bio-Rad xMark microplate reader.
# Cell viability was expressed as the percentage of absorbance in treated samples relative to the untreated negative control. Data were statistically analyzed by ordinary two-way ANOVA followed by the Šidák multiple comparisons test, comparing irradiated and non-irradiated conditions at the same concentration, with differences considered statistically significant at a p-value < 0.05. Half-maximal inhibitory concentration values reported in this work were obtained by fitting the data to a sigmoidal model with a 95% confidence interval. All assays were performed in quadruplicate and replicated independently at least twice. Phototoxicity and tumor selectivity ratios were quantified according to Equations (6) and (7):(6) PTR = IC50 dark condition/IC50 irradiated condition (7) TSR = IC50 for NHDF cells under irradiated condition/IC50 for cancer cell line under irradiated condition
# Irradiation was performed using a light-emitting diode array centered at 663 ± 8 nm to match the absorption maximum of the dyes. The LED (Roithner; 8.3 mW radiant flux) was integrated into flat-bottom 96-well plates and powered by a regulated current source. The irradiance was 15.8 mW/cm^2, and the total energy delivered per well was 3.49 J after 7 min, ensuring precise light dosing for all experiments.
# [3] = Absorption and fluorescence photophysical characterization in organic solvents; format: physicochemical
# Protocol: UV–Vis spectra were recorded on a Perkin-Elmer Lambda 25 spectrophotometer (Perkin-Elmer, Waltham, MA, USA) using Hellma Analytics quartz cuvettes (1 cm path length; Hellma Analytics, Müllheim, Germany). Spectral data are reported as maximum absorption wavelength (λmax, nm) and molar absorptivity (ε, M^−1·cm^−1). The latter was calculated according to the Lambert–Beer law from calibration plots of absorbance at λmax versus known dye concentrations.
# Ultraviolet–visible absorption spectra were obtained at room temperature using a PerkinElmer Lambda 25 spectrophotometer, while fluorescence emission data were collected on a Horiba Jobin Yvon FluoroMax-4 fluorometer. Singlet oxygen and photostability tests and measurements were carried out on a BioRad xMark microplate reader (Bio-Rad, Hercules, CA, USA).
# […] All stock solutions were prepared at 0.67 mM concentration and stored in the dark at 4 °C until further use. For spectroscopic characterization, 1.0 µM stock solutions of the squaraine dyes in dimethyl sulfoxide were serially diluted into a series of solvents (chloroform, dimethyl sulfoxide, methanol, and phosphate buffer) to obtain at least five defined concentrations. The absorption spectra of these dilutions were recorded and used to calculate molar extinction coefficients according to the Beer–Lambert law. Additional working solutions at a 1.0 µM concentration were prepared in dimethyl sulfoxide and buffer, and 1.0% Triton X-100 was added where required to investigate dye aggregation.
# The emission areas were integrated, and relative quantum yields were calculated following established methodologies, considering both absorbance at the excitation wavelength and the refractive index of the solvent. The calculation was performed using Equation (2), where “dye” and “ref” denote the squaraine dyes and the reference compound, respectively; I corresponds to the integrated emission intensity, A to the absorbance value at the excitation wavelength, and η to the refractive index of the solvent:(2) ΦF(dye)= ΦF(Std)Idye/Iref Aref/Adye ηdye2/ηref2
# [4] = light or radiation study, Light, 7 min LED 663 nm, MTT 24 h post-irradiation
# [5] = DMSO, relative to zinc phthalocyanine
SMILES,singlet oxygen quantum yield (ΦΔ) [1],"IC50 [2, 4] [µM]","IC50 ([2]; Dark, MTT 24 h later) [µM]",Photodynamic ratio (PTR) [2],"reduction in viability ([2]; normal fibroblasts, irradiated, up to 2.5 μM) [%]",Stokes shift (ΔS) ([3]; DMSO) [nm],absorption maximum (λabs) ([3]; DMSO) [nm],emission maximum (λem) ([3]; DMSO) [nm],molar absorption coefficient (ε) ([3]; DMSO) [M⁻¹ cm⁻¹],"fluorescence quantum yield (ΦF) [3, 5]",Stokes shift (ΔS) ([3]; chloroform (CFM)) [nm],absorption maximum (λabs) ([3]; chloroform (CFM)) [nm],emission maximum (λem) ([3]; chloroform (CFM)) [nm],fluorescence quantum yield (ΦF) ([3]; chloroform (CFM)),molar absorption coefficient (ε) ([3]; chloroform (CFM)) [M⁻¹ cm⁻¹],Stokes shift (ΔS) ([3]; methanol (MeOH)) [nm],absorption maximum (λabs) ([3]; methanol (MeOH)) [nm],emission maximum (λem) ([3]; methanol (MeOH)) [nm],fluorescence quantum yield (ΦF) ([3]; methanol (MeOH)),molar absorption coefficient (ε) ([3]; methanol (MeOH)) [M⁻¹ cm⁻¹]
"CC1(C)C(=CC2=C([O-])C(=CC3=[N+](CCCc4ccccc4)c4ccccc4C3(C)C)C2=O)N(CCCc2ccccc2)c2ccccc21 [Dye 5, 4-[3,3-Dimethyl-1-(3-phenylpropyl)-indol-1-ium-2-ylmethylene]-2-[3,3-dimethyl-1-(3-phenylpropyl)indolin-2-ylidenemethyl]-3-oxocyclobut-1-en-1-olate]",<0.01,7.41,> 10,>1.4,≤ 30,13,646,659,293000,1.00,1,638,639,0.46,428000,13,631,644,0.16,422000
"CC1(C)C(=CC2=C(N)C(=CC3=[N+](CCCc4ccccc4)c4ccccc4C3(C)C)C2=O)N(CCCc2ccccc2)c2ccccc21.[I-] [Dye 9, 2-{2-Amino-3-[3,3-dimethyl-1-(3-phenylpropyl)indolin-2-ylidenemethyl]-4-oxocyclobut-2-en-1-ylidenemethyl}-3,3-dimethyl-1-(3-phenylpropyl)-indol-1-ium Iodide]",<0.01,3.79,6.8,1.8,,12,652,664,232000,0.12,9,647,656,0.08,330000,12,640,652,0.02,303000
"CNC1=C(C=C2N(CCCc3ccccc3)c3ccccc3C2(C)C)C(=O)C1=CC1=[N+](CCCc2ccccc2)c2ccccc2C1(C)C.[I-] [Dye 11, 2-{3-[3,3-Dimethyl-1-(3-phenylpropyl)indolin-2-ylidenemethyl]-2-(methylamino)-4-oxocyclobut-2-en-1-ylidenemethyl}-3,3-dimethyl-1-(3-phenylpropyl)-indol-1-ium Iodide]",<0.01,3.24,6.57,2.0,,12,663,675,212000,0.04,13,657,670,0.10,202000,11,650,661,0.01,174000
"CC1(C)C(=CC2=C(NCc3ccc4ccc5cccc6ccc3c4c56)C(=CC3=[N+](CCCc4ccccc4)c4ccccc4C3(C)C)C2=O)N(CCCc2ccccc2)c2ccccc21.[I-] [Dye 14, 2-({3-[3,3-dimethyl-1-(3-phenylpropyl)indolin-2-ylidenemethyl]-4-oxo-2-[(pyren-1-ylmethyl)amino]cyclobut-2-en-1-ylidene}methyl)-3,3-dimethyl-1-(3-phenylpropyl)-indol-1-ium Iodide]",<0.01,> 10,> 10,,,15,661,676,197000,0.05,13,658,671,0.06,281000,13,650,663,0.01,285000
